{"source": "patent US10227327B2", "about": "“Inhibitors of metallo-beta-lactamase (MBL) comprising a zinc chelating moiety” (Universitetet I Oslo, priority 2013, dated 2019)", "experiment_in_all_cases": "Microbroth dilution, meropenem MIC with/without compound", "format_in_all_cases": "cell-based", "key": {"[1]": {"test_system": "P. aeruginosa 50692172 (NDM-1)", "details": "compound at 125 μM; 50692172 P. aeruginosa NDM-1", "procedure": "(§1) General Protocol for Microbroth Dilution Method for Evaluating Antibacterial Activity of Compounds or Synergistic Effect of Compound-Antibiotic Combination\n(§2) • Plate bacterial strain(s) on appropriate media: • Gram-negative bacteria with ESBLs or carbapenemases: green agar plates with 100 mg/L ampicillin • Gram-negative bacteria without β-lactamases: green agar plates • Gram-positive bacteria (Staphylococci and Enterococci): blood agar plates • Incubate o.n. at 37° C. Day 2: Prepare the Bacterial Inoculum: • Prepare a 0.5 McFarland suspension of bacteria in 0.85% NaCl. (Should be used within 15 min of preparation). • Dilute the 0.5 McFarland suspension 1:100 into MH broth. Check the inoculum by diluting the prepared bacterial suspension 1:100 (10 μl bacterial suspension+990 μl 0.85% NaCl). Plate 10 μl of the dilution on MH agar plates (×2). Incubate o.n. at 37° C., count the colonies and calculate the final CFU/ml inoculum in the plate by multiplying the average number of colonies with 10000 and divide by 2. The final inoculum should be between 3-7×10^5 CFU/ml. • Add 50 μl of the prepared bacterial suspension to each well in the microtiter plate except negative growth control. Preparation of Compounds/Antibiotics • Calculate the desired concentration-range and volume of the compounds/antibiotics in the assay. […] Dilute the stock solution in MH broth. Make subsequent 2-fold dilutions in MH broth of the desired concentrations if a concentration range is to be tested (remember the extra dilution factor in the assay plate). Always include extra volume for pipetting. Take into consideration stock solutions that are made in buffers that have an effect on bacterial growth (e.g. DMSO). Assay: • Determining the MIC of compounds/antibiotics alone: • Add 25 μl of each concentration of compound/antibiotic to row 2-11 (highest concentration in row 2) • Add 25 μl MH broth to row 2-11 • Add 50 μl MH broth to row 12 (positive control) • Add 100 μl MH broth to row 1 • Add 50 μl bacterial suspension to row 2-12. • Determining the MIC of antibiotics+compounds: • Add 25 μl of each concentration of antibiotic to row 2-11 (highest concentration in row 2) • Add 25 μl of compound to row 2-11 • Add 50 μl MH broth to row 12 (positive control) • Add 100 μl MH broth to row 1 • Add 50 μl bacterial suspension to row 2-12. • Incubate the plate for 20 hrs at 37° C. and determine the MIC in the presence and absence of inhibitor."}, "[2]": {"test_system": "E. coli K71-77 (NDM-1)", "details": "compound at 125 μM; K71-77 E. coli NDM-1", "procedure": "as §1, §2"}, "[3]": {"test_system": "K. pneumoniae K66-45 (NDM-1)", "details": "compound at 125 μM; K66-45 K. pneumoniae NDM-1", "procedure": "as §1, §2"}, "[4]": {"test_system": "E. coli 50639799 (VIM-1)", "details": "compound at 125 μM; 50639799 E. coli VIM-1", "procedure": "as §1, §2"}, "[5]": {"test_system": "P. aeruginosa K34-7 (VIM-2)", "details": "compound at 125 μM; K34-7 P. aeruginosa VIM-2", "procedure": "as §1, §2"}, "[6]": {"test_system": "K. pneumoniae A3-81 (VIM-1)", "details": "compound at 125 μM; A3-81 K. pneumoniae VIM-1", "procedure": "as §1, §2"}}}
{"smiles": "C[C@H](CS)C(=O)N1CCC[C@H]1C(=O)O", "note": "[Captopril]", "values": [{"measurement": "Meropenem MIC (mg/L) in presence of compound", "setting": "[1]", "value": "32 to 64", "unit": "mg/L"}, {"measurement": "Meropenem MIC (mg/L) in presence of compound", "setting": "[2]", "value": "2 to 4", "unit": "mg/L"}, {"measurement": "Meropenem MIC (mg/L) in presence of compound", "setting": "[3]", "value": 64, "unit": "mg/L"}, {"measurement": "Meropenem MIC (mg/L) in presence of compound", "setting": "[4]", "value": 16, "unit": "mg/L"}, {"measurement": "Meropenem MIC (mg/L) in presence of compound", "setting": "[5]", "value": 32, "unit": "mg/L"}, {"measurement": "Meropenem MIC (mg/L) in presence of compound", "setting": "[6]", "value": "64 to 128", "unit": "mg/L"}]}
